Source: patent publication US11478471B2, “Methods and compositions for treating diabetes, metabolic syndrome and other conditions” (priority 2005, dated 2022)
Converted amounts (≈) assume the structure as drawn. “Also recorded” adds a separate entry of the source. Read-outs that look alike come from different tables or passages of the source.

Legend:
cholesterol levels = test: Cholesterol levels in rats after oral dosing; assay type: in vivo, Sprague Dawley rats; details: for Cholesterol Levels (mean ± SEM): single oral 200 mg/kg
Description: The rats were maintained as described above; the drugs were suspended in olive oil, and each rat was dosed once via gastric tube to achieve a dose of 200 mg/kg. All of the rats were dosed at a specific time so that all terminations occurred between 6 and 7 pm. […] Following sacrifice, plasma was prepared, and the concentration of corticosterone in the plasma was determined by ELISA. In the same plasma samples, total cholesterol levels were also determined.

Candida kefyr = test: Antifungal MIC; assay type: cell-based; details: Kluyveromyces marxianus, DSM11954; DSM strain 11954, 48 h
Candida parapsilosis = test: Antifungal MIC; assay type: cell-based; details: Lodderomyces parapsilosis
Saccharomyces cerevisiae = test: Antifungal MIC; assay type: cell-based; details: DSM01333, DSM strain 01333, 48 h
[1] = Toxicokinetics of racemic ketoconazole in another 28-day dog study (b); details: dogs; for Cmax / AUC(0-t) / concentration at 0 h / concentration at 1 h / concentration at 2 h / concentration at 4 h / concentration at 8 h / concentration at 12 h / Tmax: beagle, dog, plasma, po; for AUC(0-t): AUC(0-12), footnote: AUC data is for 0-24 h; for concentration at 0 h / concentration at 1 h / concentration at 2 h / concentration at 4 h / concentration at 8 h / concentration at 12 h: Drug concentration in plasma; for Tmax: Tmax Range
Source text: Two groups of three male and three female dogs per group were studied.
Toxicokinetic samples were collected on Day 1 and during Weeks 2 and 4. […] For the following Table: *Days of treatment.

rat hepatocytes = details: cultured rat hepatocytes, four hours exposure; cited from earlier work
[2] = read-out: Cmax of unmetabolized ketoconazole; humans, 400 mg dose; cited from earlier work
[3] = SBA for NDA 18-533; cited from earlier work
[4] = 28 day GLP toxicity study in dogs; details: dogs, 40 mg/kg/day, led to cessation of dosing after 9 days
[5] = female, 10 mg/kg, study b, powder, 10 mg/kg oral, day 1, F
[6] = female, 10 mg/kg, study b, powder, 10 mg/kg oral, day 28, F
[7] = female, 40 mg/kg, study b, powder, 40 mg/kg oral, day 1, F
[8] = female, 40 mg/kg, study b, powder, dose and days not printed in the row (40 mg/kg, day 28), F
[9] = female, 40 mg/kg, study b, powder, 40 mg/kg oral, day 28, F
[10] = male, 10 mg/kg, study b, powder, 10 mg/kg oral, day 1, M
[11] = male, 10 mg/kg, study b, powder, 10 mg/kg oral, day 28, M
[12] = male, 40 mg/kg, study b, powder, 40 mg/kg oral, day 1, M
[13] = male, 40 mg/kg, study b, powder, dose and days not printed in the row (40 mg/kg, day 28), M
[14] = male, 40 mg/kg, study b, powder, 40 mg/kg oral, day 28, M

SMILES: CC(=O)N1CCN(c2ccc(OCC3COC(Cn4ccnc4)(c4ccc(Cl)cc4Cl)O3)cc2)CC1 (racemic) [Racemic ketoconazole, 1-acetyl-4-[4-[[2-(2,4-dichlorophenyl)-2-[(1H-imidazol-1-yl)-methyl]-1,3-dioxolan-4-yl]methoxy]phenyl]piperazine]
- efficacy at lowering cholesterol (cholesterol levels; 200 mg/kg oral, up to 24 hours): intermediate between the two enantiomers
- Cholesterol Levels (mean ± SEM) (cholesterol levels; 4 h): 81.2 ± 3.9 mg/dL
- Cholesterol Levels (mean ± SEM) (cholesterol levels; 8 h): 73.5 ± 2.3 mg/dL
- Cholesterol Levels (mean ± SEM) (cholesterol levels; 12 h): 69.6 ± 2.3 mg/dL
- Cholesterol Levels (mean ± SEM) (cholesterol levels; 16 h): 69.6 ± 3.1 mg/dL
- MIC (Candida kefyr): 0.03 µg/mL (≈ 0.0565 µM)
- MIC (Candida parapsilosis; DSM05784, 48 h): 0.03 µg/mL (≈ 0.0565 µM)
- MIC (Candida parapsilosis; DSM11224, 48 h): < 0.015 µg/mL
- MIC (Saccharomyces cerevisiae): 0.25 µg/mL (≈ 0.47 µM)
- Cmax ([1]; both, 10 mg/kg, 10 mg/kg, day 28): 7520 to 9200 ng/mL
- Cmax ([1]; both, 40 mg/kg, 40 mg/kg, day 28): 42800 to 46800 ng/mL
- change of exposure (AUC, Cmax) with repeat dosing, day 28 vs day 1 ([1]; daily oral dosing for 28 days): AUC determined after a single dose was significantly reduced in comparison to the AUC determined after 28 daily doses; also recorded: significant increase between day 1 and day 28
- AUC(0-t) [1, 5]: 6730 ng·h/mL
- AUC(0-t) [1, 6]: 33100 ng·h/mL
- Cmax [1, 5]: 1580 ng/mL
- Cmax [1, 6]: 7520 ng/mL
- concentration at 0 h [1, 5]: < 250 ng/mL
- concentration at 1 h [1, 5]: 1300 ng/mL
- concentration at 2 h [1, 5]: 1230 ng/mL
- concentration at 4 h [1, 5]: 590 ng/mL
- concentration at 8 h [1, 5]: < 250 ng/mL
- concentration at 12 h [1, 5]: < 250 ng/mL
- concentration at 0 h [1, 6]: < 250 ng/mL
- concentration at 1 h [1, 6]: 7280 ng/mL
- concentration at 2 h [1, 6]: 7210 ng/mL
- concentration at 4 h [1, 6]: 4390 ng/mL
- concentration at 8 h [1, 6]: 850 ng/mL
- concentration at 12 h [1, 6]: < 250 ng/mL
- Tmax [1, 5]: 1 to 8 h
- Tmax [1, 6]: 1 to 2 h
- AUC(0-t) [1, 7]: 42900 ng·h/mL
- AUC(0-t) [1, 8]: 639000 ng·h/mL
- Cmax [1, 7]: 6230 ng/mL
- Cmax [1, 8]: 42800 ng/mL
- concentration at 0 h [1, 7]: < 250 ng/mL
- concentration at 1 h [1, 7]: 5650 ng/mL
- concentration at 2 h [1, 7]: 5760 ng/mL
- concentration at 4 h [1, 7]: 3300 ng/mL
- concentration at 8 h [1, 7]: 1840 ng/mL
- concentration at 12 h [1, 7]: 1550 ng/mL
- concentration at 0 h [1, 9]: 12800 ng/mL
- concentration at 1 h [1, 9]: 12300 ng/mL
- concentration at 2 h [1, 9]: 31600 ng/mL
- concentration at 4 h [1, 9]: 38600 ng/mL
- concentration at 8 h [1, 9]: 40400 ng/mL
- concentration at 12 h [1, 9]: 29900 ng/mL
- Tmax [1, 7]: 2 to 12 h
- Tmax [1, 8]: 4 to 8 h
- AUC(0-t) [1, 10]: 9010 ng·h/mL
- AUC(0-t) [1, 11]: 44200 ng·h/mL
- Cmax [1, 10]: 1430 ng/mL
- Cmax [1, 11]: 9200 ng/mL
- concentration at 0 h [1, 10]: < 250 ng/mL
- concentration at 1 h [1, 10]: 380 ng/mL
- concentration at 2 h [1, 10]: 620 ng/mL
- concentration at 4 h [1, 10]: 1180 ng/mL
- concentration at 8 h [1, 10]: 330 ng/mL
- concentration at 12 h [1, 10]: < 250 ng/mL
- concentration at 0 h [1, 11]: < 250 ng/mL
- concentration at 1 h [1, 11]: 7530 ng/mL
- concentration at 2 h [1, 11]: 8630 ng/mL
- concentration at 4 h [1, 11]: 6200 ng/mL
- concentration at 8 h [1, 11]: 1440 ng/mL
- concentration at 12 h [1, 11]: 430 ng/mL
- Tmax [1, 10]: 2 to 4 h
- Tmax [1, 11]: 1 to 2 h
- AUC(0-t) [1, 12]: 180000 ng·h/mL
- AUC(0-t) [1, 13]: 542000 ng·h/mL
- Cmax [1, 12]: 23300 ng/mL
- Cmax [1, 13]: 46800 ng/mL
- concentration at 0 h [1, 12]: < 250 ng/mL
- concentration at 1 h [1, 12]: 10300 ng/mL
- concentration at 2 h [1, 12]: 14600 ng/mL
- concentration at 4 h [1, 12]: 23100 ng/mL
- concentration at 8 h [1, 12]: 10100 ng/mL
- concentration at 12 h [1, 12]: 6700 ng/mL
- concentration at 0 h [1, 14]: 3970 ng/mL
- concentration at 1 h [1, 14]: 11900 ng/mL
- concentration at 2 h [1, 14]: 24600 ng/mL
- concentration at 4 h [1, 14]: 32700 ng/mL
- concentration at 8 h [1, 14]: 46800 ng/mL
- concentration at 12 h [1, 14]: 28300 ng/mL
- Tmax [1, 12]: 2 to 4 h
- Tmax [1, 13]: 8 h
- concentrations with no detectable effect on LDH release (rat hepatocytes): below 75 microM
- Cmax [2]: 12.3 µM
- carcinogenicity [3]: non-carcinogenic
- body weight losses [4]: up to 17.3%
